Measurements as given in US4390523A, “Sorbose for inhibiting fermentation acids in the mouth” (priority 1972, dated 1983).
Values joined by “and” are separate entries in the source; they are usually repeats but may differ in a detail not shown here. Equal entries are not always repeated. “Also recorded” adds a separate entry of the source. Where two headings read alike, the source gives them in different places.

Assays:
[1] = tested on: oral bacteria (dilute human saliva); details: background statement; cited from earlier work
[2] = tested on: oral bacteria (dilute human saliva); experiment: Formation of acids and lowering of pH by fermentation by oral bacteria (Table III); format: cell-based; details: for pH of medium / NaOH necessary for neutralization: 1 ml of 18% solution in 10 ml medium; for pH of medium: saliva, 37° C.; for NaOH necessary for neutralization: N/40 NaOH; for formation of acids / acidification (conclusion) / lowering of the pH to: medium inoculated with dilute saliva
Description: A series of tubes containing 10 ml of a sugarless nutritive culture medium at pH 7 was prepared. These tubes were sterilized by passing them through an autoclave at 120° C. for 20 minutes.
1 ml of sterile water was introduced into a first series of five tubes to make a control series.
1 ml of a sterile 18% solution of dextrose (weight/volume=W/V) was introduced into a second series of five tubes.
1 ml of a sterile 18% solution of saccharose (W/V) was introduced into a third series of five tubes.
1 ml of a sterile 18% solution of sorbose (W/V) was introduced into a fourth series of five tubes.
The sterile solutions of dextrose, saccharose and sorbose were obtained by sterilizing filtration by the usual technique.
A dilution of human saliva was prepared for immediate use and four tubes of each series were inoculated with the same volume of dilute saliva.
The formation of acids was followed by electric measurement of the pH and by determination of the quantity of acids formed; this determination was effected with a N/40 sodium/hydroxide solution, phenolphthalein being used as a neutralization indicator; a first determination was made before incubation, the following four determinations after incubations of 3, 6, 10 and 24 hours, respectively, at 37° C.
The results are assembled in Table III (pH value and value of the number of ml of sodium hydroxide necessary for neutralization).

[3] = cited from earlier work
[4] = cited from earlier work; remark: listed apart in the source
man = experiment: Hypersorbemia produced in man; format: in vivo; details: 1 gram per kg, empty stomach, in one lot
Description: To complete the tests concerned with animals, tests were carried out for hypersorbemia produced in man (ingestion on an empty stomach in one lot of a dose of sorbose equivalent to 1 gram per kg of weight).

[5] = tested on: ROCKFELLER mice and WISTAR rats; experiment: Overall toxicity and tolerance tests of sorbose in mice and rats; format: in vivo, mouse; rat
Description: (§1) The toxicity of sorbose has been studied in a first series of tests.
(§2) The test animals were ROCKFELLER mice and WISTAR rats.

[6] = Chromatographic examination of the urine of animals ingesting sorbose; format: in vivo, WISTAR rat
Description: Thus, sorbose was administered orally to rats of the WISTAR type, as a supplement to the usual food ration, in a dose of 0.330 grams per 100 grams of body weight; such a dose would correspond to a daily intake of 198 grams of sorbose in a 60 kg person. This test was carried on for four weeks and three months. Each morning, 1 milliliter per 100 grams of body weight of a sorbose solute in water containing 0.330 g/ml was administered orally to each of the animals.

[7] = rat, in vivo, po
Description: (§4) This test was carried on for four weeks and three months. Each morning, 1 milliliter per 100 grams of body weight of a sorbose solute in water containing 0.330 g/ml was administered orally to each of the animals.
(§5) The examinations of the blood comprised the following:
(§6) determination of the true glycemia (glucose-oxydase dosage),
(§7) determination of the ionemia (chlorides-phosphates-bicarbonates-sodium-potassium), azotemia, proteinemia, albuminemia, calcemia, cholesterolemia, uricemia and creatinemia, the total bilirubinemia and the levels of the alkaline phosphatases, the creatine-phosphokinases and the glutamino-oxaloacetic transaminases (these determinations were effected with the aid of a Technicon SM A 6+SM A 12 autoanalyzer).
(§8) These biological tests were carried out first on animals fed normally and then on the same animals in the course of the following weeks during which sorbose was being administered as a supplement to the food ration, as hereinbefore described.

[8] = Clinical observation and weight development during oral administration of sorbose (food value); format: in vivo, WISTAR rat; details: 0.330 g per 100 g of body weight orally
Description: The food value of sorbose has been studied in a second series of tests.

[9] = Biological parameters of blood before and during oral administration of sorbose (Table II); details: WISTAR rats, oral ingestion
Description: as §4, §5, §6, §7, §8

[10] = tested on: male mice of the ROCKFELLER type; experiment: Acute toxicity and lethalness of sorbose in mice; format: in vivo, ROCKFELLER mouse; details: mice
Description: as §1, §2
(§3) Thus, solutes of sorbose (concentrations used: 615, 700, 900, 1000 and 1100 mg per ml) were administered orally, intravenously and intraperitoneally in different doses and concentrations to male mice of the ROCKFELLER type and to male rats of the WISTAR type.

[11] = Acute toxicity and lethalness of sorbose in mice; format: in vivo, ROCKFELLER mouse; details: mouse, in vivo, ip; intraperitoneal; ROCKFELLER mice; Karber and Behrens method; read-out: lethal dose 50 (LD50)
Description: as §1, §2, §3

[12] = Urinary biological parameters before and during oral administration of sorbose (Table I); format: in vivo, WISTAR rat
Description: In the course of this experiment, detailed biological examinations concerning the urine and blood were carried out.
The urine examinations comprised the following: determination of the reducing power (copper-neocuproin method), determination of the true glycosuria (glucose-oxydase method), determination of the proteinuria, measurement of the urinary pH, determination of the urinary ionogram relating to the chlorine ions, sodium and potassium.

[13] = tested on: male rats of the WISTAR type; experiment: Acute toxicity and lethalness of sorbose in rats; format: in vivo, WISTAR rat; details: rats
Description: as §1, §2, §3

[14] = Acute toxicity and lethalness of sorbose in rats; format: in vivo, WISTAR rat; details: rat, in vivo, ip; intraperitoneal; WISTAR rats; Karber and Behrens method; read-out: lethal dose 50 (LD50)
Description: as §1, §2, §3

[15] = tested on: viscera: stomach, small intestine, large intestine, liver, kidneys and pancreas; experiment: Anatomical and histopathological observations at the end of the tests; format: in vivo, WISTAR rat
Description: At the end of the tests the animals were put to death so that anatomical and histopathological observations could be made.

[16] = prolonged administration orally and in high doses
[17] = 330 mg/100 g oral, a = first week, rats 1-6
[18] = 330 mg/100 g oral, b = fifth week, rats 1-6
[19] = 330 mg/100 g oral, c = thirteenth week, rats 1-6

O=C[C@H](O)[C@@H](O)[C@H](O)[C@H](O)CO [dextrose]
formation of acids and lowering of pH under the action of mouth bacteria (general statement) [1]: give rise to a lowering of the pH and a considerable production of acids | pH of medium ([2]; 0 hours): 7.0 | NaOH necessary for neutralization ([2]; 0 hours): 2.50 mL | pH of medium ([2]; 3 hours): 6.90 | NaOH necessary for neutralization ([2]; 3 hours): 2.25 mL | pH of medium ([2]; 6 hours): 6.80 | NaOH necessary for neutralization ([2]; 6 hours): 2.40 mL | pH of medium ([2]; 10 hours): 6.50 | NaOH necessary for neutralization ([2]; 10 hours): 2.80 mL | pH of medium ([2]; 24 hours): 5.30 | NaOH necessary for neutralization ([2]; 24 hours): 5.70 mL | formation of acids / acidification (conclusion) [2]: distinct acidification | lowering of the pH to [2]: 5.3

O=C(CO)[C@@H](O)[C@H](O)[C@H](O)CO [levulose, reference compound]
hygroscopicity ([3]; printed as "hydroscopic"): very hydroscopic

OC[C@@H](O)[C@@H](O)[C@H](O)[C@H](O)CO [mannitol]
laxative effect ([4]; in vivo): laxative in high doses

OC[C@H]1O[C@@](CO)(O[C@H]2O[C@H](CO)[C@@H](O)[C@H](O)[C@H]2O)[C@@H](O)[C@@H]1O [saccharose]
cariogenic properties [1]: has cariogenic properties | formation of acids and lowering of pH under the action of mouth bacteria (general statement) [1]: give rise to a lowering of the pH and a considerable production of acids | pH of medium ([2]; 0 hours): 7.0 | NaOH necessary for neutralization ([2]; 0 hours): 2.50 mL | pH of medium ([2]; 3 hours): 6.90 | NaOH necessary for neutralization ([2]; 3 hours): 2.45 mL | pH of medium ([2]; 6 hours): 6.90 | NaOH necessary for neutralization ([2]; 6 hours): 2.40 mL | pH of medium ([2]; 10 hours): 6.10 | NaOH necessary for neutralization ([2]; 10 hours): 3.20 mL | pH of medium ([2]; 24 hours): 5.10 | NaOH necessary for neutralization ([2]; 24 hours): 6.10 mL | formation of acids / acidification (conclusion) [2]: distinct acidification | lowering of the pH to [2]: 5.1

OC[C@@H](O)[C@@H](O)[C@H](O)[C@@H](O)CO [sorbitol]
laxative effect ([4]; in vivo): laxative in high doses

O=C(CO)[C@H](O)[C@@H](O)[C@H](O)CO [sorbose]
tolerance in man (man): well tolerated | total reducing power of the blood in man (man): heightening of the total reducing power of the blood, which disappeared in a few hours | true glycemia in man (man): did not produce any variation in the true glycemia | toxicity (acute, subacute and chronic) ([5]; ROCKFELLER mice and WISTAR rats): devoid of acute, subacute and chronic toxicity; also recorded: absence of acute toxicity | clinical and biological tolerance [5, 16]: tolerated perfectly on the clinical and biological planes | histologically detectable visceral lesion [5, 16]: does not result in any histologically detectable visceral lesion | glucose and sorbose in the urine by chromatographic examination [6]: absence of glucose and the presence of sorbose | serobiogram (conclusion) [7]: does not modify the serobiogram | total reducing power of the serum (conclusion) [7]: does not modify the value of the true glycemia or that of the total reducing power of the serum | clinically detectable anomalies ([8]; four weeks and three months): no clinically detectable anomalies were observed | weight development ([8]; versus control animals): comparable to that observed in control animals | solubility in alcohol [3]: not very soluble in alcohol | solubility in water [3]: rather soluble in water | pH of medium ([2]; 0 hours): 7.0 | NaOH necessary for neutralization ([2]; 0 hours): 2.50 mL | pH of medium ([2]; 3 hours): 6.80 | NaOH necessary for neutralization ([2]; 3 hours): 2.25 mL | pH of medium ([2]; 6 hours): 6.90 | NaOH necessary for neutralization ([2]; 6 hours): 2.20 mL | pH of medium ([2]; 10 hours): 6.80 | NaOH necessary for neutralization ([2]; 10 hours): 1.90 mL | pH of medium ([2]; 24 hours): 6.80 | NaOH necessary for neutralization ([2]; 24 hours): 1.90 mL | formation of acids / acidification (conclusion) [2]: does not give rise to the formation of acids or to a lowering of the pH; also recorded: does not lead, by fermentation by bacteria of the mouth, to the production of fermentation acids or to a lowering of the pH; also recorded: no formation of acids or lowering of the pH; also recorded: does not give rise to the formation of acids by oral bacteria | cariogenicity (conclusion) ([2]; oral bacteria): non-cariogenic | tolerance (conclusion from the biological analyses) [9]: tolerated perfectly | dose at which no lethalness was observed ([10]; intravenously): 10 grams per kg of body weight | dose at which no lethalness was observed ([10]; orally): 27.5 grams per kg of body weight | LD50 [11]: 13600 mg/kg | physiological proteinuria (conclusion) ([12]; 330 mg/100 g oral, 13 weeks): does not lead to a significant modification of the physiological proteinuria | reducing power in the urine (conclusion) ([12]; 330 mg/100 g oral, 13 weeks): causes the appearance of the reducing power in the urine | urinary ionogram (conclusion) ([12]; 330 mg/100 g oral, 13 weeks): does not modify the urinary ionogram | urinary pH (conclusion) ([12]; 330 mg/100 g oral, 13 weeks): does not modify the urinary pH | urinary potassium [12, 17]: 1.10 meq/24 h and 1.03 meq/24 h and 1.68 meq/24 h and 1.26 meq/24 h and 1.48 meq/24 h and 1 meq/24 h | urinary total reducing power [12, 17]: 56 mg/24 h and 30 mg/24 h and 39 mg/24 h and 38 mg/24 h and 35 mg/24 h and 28 mg/24 h | urinary chlorides [12, 18]: 1.27 meq/24 h and 0.90 meq/24 h and 1.11 meq/24 h and 1.56 meq/24 h and 1.00 meq/24 h and 1.46 meq/24 h | urinary pH [12, 18]: 8.5 and 8.2 and 9.2 and 9.1 | urinary chlorides [12, 19]: 0.92 meq/24 h and 0.79 meq/24 h and 0.70 meq/24 h and 0.90 meq/24 h and 1.08 meq/24 h and 0.76 meq/24 h | urinary pH [12, 19]: 9 and 8.5 and 8.8 and 9.1 | urinary potassium [12, 19]: 1.19 meq/24 h and 0.99 meq/24 h and 1.20 meq/24 h and 1.26 meq/24 h and 1.08 meq/24 h | urinary sodium [12, 19]: 0.39 meq/24 h and 0.34 meq/24 h and 0.54 meq/24 h and 0.45 meq/24 h and 0.46 meq/24 h and 0.61 meq/24 h | urinary total reducing power [12, 19]: 36 mg/24 h and 31 mg/24 h and 32 mg/24 h and 41 mg/24 h | glycosuria ([12]; during oral administration, 330 mg/100 g, 13 weeks): No glycosuria was detected; also recorded: does not result in true glycosuria | dose at which no lethalness was observed ([13]; intravenously): 5.5 grams per kg of body weight | dose at which no lethalness was observed ([13]; orally): 11 grams per kg of body weight | LD50 [14]: 12800 mg/kg | anatomical anomaly of the viscera [15]: no anatomical anomaly was found | histopathological change of structure of the organs [15]: did not enable any histopathological change of structure of the organs examined to be detected

OC[C@@H](O)[C@H](O)[C@@H](O)CO [xylitol]
laxative effect ([4]; high doses): laxative in high doses

cyclamates
harmfulness ([4]; in vivo): subject of serious reservations on the part of the medical profession in regards to their harmfulness
